# Data: patent publication US5686495A, “Substituted hydrazinedicarboximidamides and methods of use thereof” (Cambridge NeuroScience, Inc., priority 1995, dated 1997)
# Structures can show the parent of a compound that is named as a salt. Where two headings read alike, the source gives them in different places.
# Key:
# [1] = tested on: 3H-glutamate release from rat brain synaptosomes; experiment: Inhibition of K+-evoked 3H-glutamate release from synaptosomes (rapid superfusion); assay type: cell-based
# Protocol: To study the release of presynaptic ^3 H-glutamate, synaptosomes from young rats were used. CD Male rats of 4 to 6 weeks (50-75 g) were used for the preparation of synaptosomes. Rats were killed by decapitation with guillotine and the skull bone was opened in the center with the pointed blade of dissection scissors. The bone is then peeled away with a bone cutter and the brain is pried with a micro spatula. The cerebellum is removed and the rest of the brain is placed in 35 ml of 0.32M Sucrose solution and homogenized in a Thomas glass teflon homogenizer C at the maximum power setting (about 450 rpm) with 16 strokes. The pestle is rinsed with 5 ml of sucrose solution and added to the homogenate. The homogenate is centrifuged for 10 min at 3500 rpm (1500 g) in a SS-34 rotor in Sorvall RC-5B. The resulting pellet (P1) is discarded and the supernatant (S1) is recentrifuged for 20 min at 8700 rpm (8500 g). The supernatant (S2) is discarded and the pellet (P2) is resuspended in 5 ml of 0.32M sucrose and hand homogenized with 4 strokes (Thomas C) and the volume was made up to 8 ml. This homogenate was layered on 20 ml of 0.8M sucrose solution in two centrifuge tubes and spun for 25 minutes at 8700 rpm (8500 g). At the end of this spin, most of the myelin stays at the interphase of 0.32M and 0.8M sucrose and mitochondria pellet as a brown pellet. The synaptosomes are dispersed in the 0.8M sucrose. Using a 10 ml pipette, the 0.8M sucrose layer is collected (without disturbing the top myelin layer or the pellet) and diluted slowly with an equal volume of chilled basal buffer, while stirring gently with a Pasteur pipette. This diluted solution is centrifuged for 10 min at 10,000 rpm (12,000 g) and the pellet is resuspended in 1.5 ml of basal buffer and hand-homogenized in a Wheaton glass-glass 7 ml homogenizer with 8 strokes.
# The synaptosomal homogenate is diluted 1 ml to 10 ml with basal buffer. This dilution gives a protein concentration of 500 to 600 μg/ml. One hundred μl of this diluted prep with 50-60 μg of protein is used for each superfusion event. […] The diluted synaptosomal solution was kept on ice until the end of the experiment.
# ^3 H-glutamate (purchased from NEN) is stored in the refrigerator. Pipette 6 μl ([…]; 40 to 55 Ci/mmol) into a disposable test tube. Add 100 μl of diluted prep and mix gently on vortex and incubate at 30° C. for 10 min. ^3 H-glutamate is taken up by sodium-coupledglutamate transporter present in synaptosomal membranes. After 10 min, dilute the incubation mixture with 690 μl of basal buffer. This solution is then transferred in Tygon tubing that is connected to the synaptosome loading chamber. Using a syringe filler with air, the solution is forced through the Millipore SC--GF/F--Millipore SC filter sandwich. These filters retain the synaptosomes and the solution flows through.
# An important component of the superfusion setup is the custom made stainless steel "General Valve" three-valve solenoid operated superfusion chamber with an outlet for the effluent. The three inlets are connected to stainless steel buffer reservoirs that contain (1) wash buffer, (2) control buffer and (3) experimental buffer which are kept under 40 psi of nitrogen gas through teflon tubing connections. The superfusion is controlled through a menu-driven program on an Apple IIe computer. See Turner, J. T. et al., Anal. Biochem. 178:8-16 (1989), and U.S. Pat. No. 4,891,185, the disclosures of which are fully incorporated by reference herein.
# The superfusion chamber has a teflon bushing and a stainless steel washer fixed with the flat surface facing the filters. A GF/B filter disc is placed first in the chamber to eliminate the switching related artifacts. The synaptosome loaded sandwich is then placed facing the synaptosomes into the flow followed by RA filter, stainless steel screen and a washer with the flat side facing the screen.
# [2] = tested on: potassium-stimulated 45Ca uptake of synaptosomes; experiment: Potassium-stimulated 45Ca uptake into synaptosomes; assay type: cell-based, rat; conditions: Rattus norvegicus; for inhibition at 10 µM: read-out: Inhibition of 45Ca Uptake, % Inhibition @ 10 uM (SEM)
# Protocol: Several compounds were also tested to determine whether the Ca^2+ dependent and independent components of glutamate release are related to the blockage of ^45 Ca uptake. Calcium uptake is one step in the cascade of events which occur in neuronal cell death from ischemia. See Bassaclough and Leach, Current Patents Ltd., 2-27. The Ca-flux protocol is as follows. Rat brain synaptosomes were prepared according to Hajos, Brain Res. 93:485 (1975). Synaptosomes were suspended in low potassium "LK" buffer (containing 3 mM KCl) at 2 mg/ml. […] After 5 seconds, the ^45 Ca flux was stopped with 0.9 ml quench solution (LK+10 mM EGTA). The solution was filtered under vacuum and the filters washed with 15 ml of quench buffer. The effect of drug is expressed as % inhibition (or block) of control potassium-stimulated ^45 Ca influx. This method is an adaptation of the method disclosed by Nachsen and Blaustein, J. Physiol. 361:251-268 (1985).
# [3] = tested on: hippocampal slices (Schaffer collateral synaptic potentials); experiment: Hippocampal slice electrophysiology of excitatory synaptic transmission (field EPSP, population spikes); design: species or system Sprague-Dawley rats
# Protocol: Transverse sections of hippocampus were obtained from 4-6 week old Sprague-Dawley rats and maintained under standard conditions. […] Extracellular excitatory post synaptic potentials (EPSP's) were recorded by placing a saline-filled glass microelectrode in either the stratum radiatum or stratum lacunosum. Population spikes were recorded by placing an electrode in the stratum pyramidole.
# [4] = Rattus norvegicus, read-out: relative level of glutamate release
# [5] = Rattus norvegicus, read-out: Inhibition of Glutamate Release (Persistent Component), % Inhibition @ 10 uM
# [6] = read-out: Inhibition of 45Ca Uptake, IC50
smiles,measurement,setting,value
N=C(Nc1ccccc1I)N[C@H]1C[C@H]2CC[C@@H]1C2 (relative stereo) [N-((±)-endo-2-norbornyl)-N' (2-iodophenyl)guanidine],activity at 30 µM,[1]; [4],77%
Cc1ccccc1CNCc1ccccc1C [Di-(o-methyl)benzyl)amine],activity at 30 µM,[1]; [4],100%
"C1CCC(N=C(NNC(=NC2CCCCC2)NC2CCCCC2)NC2CCCCC2)CC1 [N,N',N"",N""'-Tetracyclohexyl-Hydrazinedicarboximidamide]",inhibition at 10 µM,[1]; [5],67%
same,activity at 30 µM,[1]; [4],51%
same,inhibition at 10 µM,[2],74%
same,IC50,"[2]; FIG. 6 curve fits, read-out: IC50, inhibition of potassium-stimulated Ca uptake of synaptosomes (FIG. 6)",3.3 µM
same,IC50,[2]; [6],3 µM
"N=C(Nc1cccc2ccccc12)Nc1cccc2ccccc12 [N,N'-di-(1-naphthyl)guanidine]",inhibition at 10 µM,[1]; [5],31%
same,activity at 30 µM,[1]; [4],19%
same,activity at 100 µM,[1]; [4],29%
same,inhibition at 10 µM,[2],27%
same,IC50,[2]; [6],23.6 ± 10 µM
"N=C(Nc1ccccc1I)Nc1ccccc1I [N,N'-di-(2-iodophenyl)guanidine]",activity at 100 µM,[1]; [4],61%
"CCc1cccc(NC(=N)N(C)c2cccc(CC)c2)c1 [N,N'-di-(3-ethylphenyl)-N-methylguanidine]",activity at 30 µM,[1]; [4],88%
"Cc1ccccc1NC(=N)Nc1ccccc1C [N,N'-di-(o-tolyl)guanidine]",activity at 100 µM,[1]; [4],91%
CCc1cccc(N(C)C(=N)Nc2cccc3ccccc23)c1 [N-(1-naphthyl)-N'-(m-ethylphenyl)-N'-methylguanidine],activity at 30 µM,[1]; Rattus norvegicus; 30 μM; Control = 100; K+ depolarization; read-out: relative level of glutamate release,76%
same,activity at 100 µM,[1]; Rattus norvegicus; 100 μM; Control = 100; K+ depolarization; read-out: relative level of glutamate release,21%
CC(C)c1ccccc1NC(=N)Nc1cccc2ccccc12 [N-(1-naphthyl)-N'-(o-isopropylphenyl)guanidine],activity at 30 µM,[1]; [4],100%
CC(C)c1ccccc1NC(=N)N(C)c1cccc2ccccc12 [N-(1-naphthyl)-N-methyl-N'-(o-isopropylphenyl)guanidine],activity at 30 µM,[1]; [4],95%
N=C(Nc1ccc(F)c2ccccc12)Nc1ccc2c3c(cccc13)CC2 [N-(3- and 5-Acenaphthyl)-N'-(4-Fluoronaphthyl)-Guanidine.HCl],inhibition at 10 µM,[1]; [5],85%
same,IC50,"[1]; Rattus norvegicus, read-out: Inhibition of Glutamate Release (Persistent Component), IC50",< 5 µM
same,inhibition at 10 µM,[2],47%
CCc1cccc(NC(=N)Nc2cccc3ccccc23)c1 [N-(3-ethylphenyl)-N'-(1-naphthyl)guanidine],activity at 30 µM,[1]; [4],59%
N=C(Nc1ccc(O)c2ccccc12)Nc1ccc2c3c(cccc13)CC2 [N-(5-acenaphthyl)-N'-(4-hydroxynaphthyl)guanidine],inhibition at 10 µM,[1]; [5],25%
same,inhibition at 10 µM,[2],35%
N=C(Nc1ccc2c3c(cccc13)CC2)NC1C2CC3CC(C2)CC1C3 (centres unmarked) [N-(Adamantan-2-yl)-N'-(5-acenaphthyl)guanidine],inhibition at 10 µM,[1]; [5],63%
same,IC50,"[1]; Rattus norvegicus; read-out: Inhibition of Glutamate Release (Persistent Component), IC50",5 µM
same,inhibition at 10 µM,[2],69%
same,IC50,[2]; [6],4.8 µM
N=C(Nc1ccccc1I)NC12CC3CC(CC(C3)C1)C2 [N-(adamantan-1-yl)-N'-(2-iodophenyl)guanidine],activity at 30 µM,[1]; [4],39%
Cc1ccccc1NC(=N)NC12CC3CC(CC(C3)C1)C2 [N-(adamantan-1-yl)-N'-(2-methylphenyl)guanidine],activity at 30 µM,[1]; [4],52%
same,activity at 100 µM,[1]; [4],45%
N=C(NC1CCCCC1)NC12CC3CC(CC(C3)C1)C2 [N-(adamantan-1-yl)-N'-cyclohexylguanidine],activity at 30 µM,[1]; [4],120%
N=C(Nc1ccccc1I)NC1C2CC3CC(C2)CC1C3 (centres unmarked) [N-(adamantan-2-yl)-N'-(2-iodophenyl)guanidine],activity at 30 µM,[1]; [4],74%
Cc1ccccc1NC(=N)NC1C2CC3CC(C2)CC1C3 (centres unmarked) [N-(adamantan-2-yl)-N'-(2-methylphenyl)guanidine],activity at 30 µM,[1]; [4],100%
N=C(Nc1ccccc1I)Nc1cccc2ccccc12 [N-(α-naphthyl)-N'-(2-iodophenyl)guanidine],activity at 30 µM,[1]; [4],77%
Cc1ccccc1NC(=N)NC1CCCCC1 [N-cyclohexyl-N'-(2-methylphenyl)guanidine],activity at 30 µM,[1]; [4],100%
"Nc1ncnc2c1ncn2[C@@H]1O[C@H](CO)[C@@H](O)[C@H]1O [adenosine, reference compound]",inhibition at 1000 µM,"[3]; Rattus norvegicus, 1 mM, bath application, read-out: reduction of field EPSP amplitude",90%
same,effect on field EPSP,[3]; bath application,almost completely eliminated field EPSP's
same,effect on population spikes,[3]; bath application,totally blocked
same,reversibility of effect,[3]; following washout,fully reversible following washout
